Laboratory results from US9365851B2, “Spalt-like transcription factor 4 (SALL4) and uses thereof” (National University of Singapore, priority 2011, dated 2016).
Entries after “also recorded” stand apart in the source; their conditions may differ.

What was measured:
Assay type in all cases: cell-based, human
[1] = tested on: SALL4; experiment: SALL4 RNA knock-down in primary AML cells (qRT-PCR); details: qRT-PCR normalized to GAPDH
From the text: FIG. 6: Down-regulation of SALL4 in primary AML led to cell death. (6A) Down-regulation of SALL4 in primary AML cells. The ability of shRNA constructs 7412 to knock down SALL4 mRNA in AML cells were confirmed by qRT-PCR with normalization to GAPDH. The expression of SALL4 RNA in AML cells that were infected with SALL4 shRNA (7412)-expressing retroviruses was reduced to 35% of those infected with scrambled pRS control vectors, a shRNA pRS against non-effective GFP sequence from OriGene Technologies, Inc., Rockville Md. (N=3, Error Bars: +/−SD). (6B) Increased apoptosis and cell death were observed via flow cytometry in AML cells upon SALL4 knock down by Annexin V/PI staining. Control scrambled shRNA-infected cells and SALL4 shRNA-infected cells were analyzed 24 to 48 h post transduction. Data were derived from four independent experiments. (6C-6F) Leukemia development in xenotransplant recipient mice. AML is defined as blast count more than 20% in peripheral blood and/or bone marrow with multiple organ involvements observed in recipient mice. Blasts were present in liver (6C, ×200), spleen (6D, ×200), and bone marrow (6E, ×200), and were human CD45 positive (6F). […]

[2] = tested on: HuH-7; experiment: Cellular uptake of FITC-labeled peptide
Description: Cells were grown typically in 6 well plates (35 mm dish) to 50-70% confluence. Usually the transfect ion efficiency is somehow cell type specific. 2 mM peptide was diluted 4 times in PBS (2 ul+6 ul) (For FITC peptidedo not dilute the 2 mM stock). For each transfection reaction tube with 100 ul PBS+1 ul diluted peptide was set up. Chariot reagent was diluted 1:10 in ddH2O and for each transfection a 94 ul H2O tube+6 ul diluted Chariot was prepared (No master mix for more than 4 transfections). The 2 tubes were carefully mixed by pipetting up and down and incubated 30 min. at room temperature. Medium was aspirated from the dish (well) and cells were overlay with the mix. 400 ul serum free medium was added and cells were incubated further for 1 h 37 C (cell incubator). 500 ul complete medium (with 10% serum) was finally added. If cells are not very sensitive to serum starvation (cancer cell lines) 5% serum could be used.
Fluorescent and Confocal microscopy was performed on cells treated with FITC labeled peptides with or without of transfection reagent depending on the cell type. Cells were mounted on cover slips using mounting media with DAPI (Invitrogen) and in some cases cytoskeleton dye (Invitrogen).
In order to evaluate their cellular uptake and localization, the N terminus of these peptides was labeled with fluorescein isothiocyanate (FITC). Despite the net positive charge of these peptides, their uptake by the cells is cell-type specific. Some cell lines such as HL-60 (an AML cell line) allowed the peptide to enter the cells without any modification or carrier, and some cell lines were not penetrable at all. In order to achieve a similar level of peptide delivery in most cell types, a Chariot Transfection Reagent (Active Motif) was used as a peptide carrier, as directed from the manufacturer. All cell types used in the study described herein were subjected to individual evaluation of the percentage of the cells in which the peptide was delivered as well as the duration of time during which they sustained the labeled peptide in the cells. After Chariot treatment, confocal microscopy studies confirmed uptake of these peptides throughout the cell, including nuclei (as evidenced by DAPI overlay, FIG. 1B).

[3] = tested on: PTEN/AKT pathway; experiment: PTEN/AKT pathway expression in SNU-387 cells after treatment (Western blot); details: SNU-387, Western blot
From the text: The induction of Pten expression was not affected when wt peptide was administrated together with a Pten inhibitor. AKT, a molecule with levels of phosphorylation controlled by the expression of Pten was affected by the wt peptide addition accordingly. […] The effect of wt peptide on pAKT was abrogated by the Pten inhibitor. […] In contrast, the protein expression level of endogenous Pten was very high in the none-SALL4 expressing SNU387 cells.
To confirm the involvement of PTEN tumor suppressor in SALL4 peptide-induced reduction of number of viable HCC cells, PTEN expression was analyzed by western blot upon drug treatment. […] Whether the increase in PTEN expression upon SALL4 peptide treatment has an effect in PI3K signalling by dephosphorylating AKT was examined.
To confirm the involvement of the PTEN tumor suppressor in the SALL4 peptide-induced reduction of HCC cell viability, PTEN expression was analyzed by western blot upon drug treatment. […] If the increase in PTEN expression has an effect in PI3K signaling was next examined. PTEN functions as a phosphatase to dephosphorylate AKT.

| peptide uptake (cells with peptide) ([2]; HuH-7, no carrier) | peptide uptake (cells with peptide) ([2]; HuH-7, with Chariot) | Substance | SALL4 RNA expression relative to scrambled control [1] | PTEN protein expression [3] | phosphorylated AKT (pAKT) level [3] | PTEN protein expression ([3]; listed as SALL4 peptide) |
| --- | --- | --- | --- | --- | --- | --- |
|  |  | GATGCCTTGAAACAAGCCAAGCTACCTCA (chemistry not given here) [compound 7412, SALL4 shRNA used in primary AML cells] | 35% |  |  |  |
| 0% | 60% | H-MSRRKQAKPQHI-OH [wt peptide, MSRRKQAKPQHI] |  | did not seem to change the expression of Pten significantly | little or no effect | slight increase in PTEN expression; also recorded: negligible effect on PTEN expression |
